SMILES strings stand for the structures.

This note sets out measurements from the supplement of paper PMC6965134.

The nature of one series: TIMS collisional cross section (CCS, N2) of the lipid ion; higher = larger ion cross section. The settings on record: sample type: HeLa; ionization mode: positive; one isomer drawn.
As to `CCCCCCCC/C=C\CCCCCCCCCC(=O)OC[C@@H](COC(=O)CCCCCCC/C=C\CCCCCCCC)OC(=O)CCCCCCCCCCCCCCCCCC` [TG 18:1_19:0_20:1] (ion (formula + adduct): [C60H112O6+NH4] 1+), the “TIMS collisional cross section” value worked out at 336.7 Å².

Consider `CC/C=C\C/C=C\C/C=C\C/C=C\C/C=C\C/C=C\CCC(=O)OC[C@@H](COC(=O)CCCCCCC/C=C\CCCCCCCC)OC(=O)CCCCCCC/C=C\CCCCCCCCC` [TG 18:1_19:1_22:6] (ion (formula + adduct): [C62H104O6+NH4] 1+), for which the “TIMS collisional cross section” value was 334.6 Å².

As for `CCCCCCCC/C=C\CCCCCCCC(=O)OC[C@H](COC(=O)CCCCCCCCCCCCCCCCCCCC)OC(=O)CCCCCCCCCCCCCCCCCCC` [TG 18:1_20:0_21:0] (ion (formula + adduct): [C62H118O6+NH4] 1+), the “TIMS collisional cross section” value is given as 344.2 Å².

Turning to `CCCCCCCC/C=C\CCCCCCCC(=O)OC[C@H](COC(=O)CCCCCCCCCCCCCCCCCCCCC)OC(=O)CCCCCCCCCCCCCCCCCCC` [TG 18:1_20:0_22:0] (ion (formula + adduct): [C63H120O6+NH4] 1+), the “TIMS collisional cross section” value is reported as 346.3 Å².

For the molecule `CCCCC/C=C\C/C=C\C/C=C\CCCCCCC(=O)OC[C@@H](COC(=O)CCCCCCC/C=C\CCCCCCCC)OC(=O)CCCCCCCCC/C=C\CCCCCCCC` [TG 18:1_20:1_20:3] (ion (formula + adduct): [C61H108O6+NH4] 1+), the “TIMS collisional cross section” value is recorded as 336.4 Å².

For the molecule `CCCCCCCC/C=C\CCCCCCCCCC(=O)O[C@H](COC(=O)CCCCCCC/C=C\CCCCCCCC)COC(=O)CCCCCCCCCCCCCCCCCCCCC` [TG 18:1_20:1_22:0] (ion (formula + adduct): [C63H118O6+NH4] 1+), the “TIMS collisional cross section” value is recorded as 344.7 Å².

As to `CCCCC/C=C\C/C=C\C/C=C\C/C=C\CCCCCC(=O)OC[C@@H](COC(=O)CCCCCCC/C=C\CCCCCCCC)OC(=O)CCCCCCCCC/C=C\CCCCCCCC` [TG 18:1_20:1_22:4] (ion (formula + adduct): [C63H110O6+NH4] 1+), the “TIMS collisional cross section” value is 338.9 Å².

As to `CC/C=C\C/C=C\C/C=C\C/C=C\C/C=C\C/C=C\CCC(=O)OC[C@@H](COC(=O)CCCCCCC/C=C\CCCCCCCC)OC(=O)CCCCCCCCC/C=C\CCCCCCCC` [TG 18:1_20:1_22:6] (ion (formula + adduct): [C63H106O6+NH4] 1+), the “TIMS collisional cross section” value was found to be 336.5 Å².

Turning to `CC/C=C\C/C=C\C/C=C\C/C=C\C/C=C\CCCCCC(=O)OC[C@@H](COC(=O)CCCCCCC/C=C\CCCCCCCC)OC(=O)CCC/C=C\C/C=C\C/C=C\C/C=C\CCCCC` [TG 18:1_20:4_22:5] (ion (formula + adduct): [C63H102O6+NH4] 1+), the “TIMS collisional cross section” value worked out at 333.4 Å².

Turning to `CCCCCCCC/C=C\CCCCCCCCCCCC(=O)OC[C@@H](COC(=O)CCCCCCC/C=C\CCCCCCCC)OC(=O)CCCCCCCCCCC/C=C\CCCCCCCC` [TG 18:1_22:1_22:1] (ion (formula + adduct): [C65H120O6+NH4] 1+), the “TIMS collisional cross section” value was 349.2 Å².

The series is the same for the next values; noted with them: sample type: Liver; ionization mode: positive; one isomer drawn.
With `CCCCCCCC/C=C\CCCCCCCCCC(=O)OC[C@@H](COC(=O)CCCCCCC/C=C\CCCCCCCC)OC(=O)CCCCCCCCCCCCCCCCCC` [TG 18:1_19:0_20:1] (ion (formula + adduct): [C60H112O6+NH4] 1+), the “TIMS collisional cross section” value was found to be 337 Å².

With `CCCCCCCC/C=C\CCCCCCCC(=O)OC[C@H](COC(=O)CCCCCCCCCCCCCCCCCCCCC)OC(=O)CCCCCCCCCCCCCCCCCC` [TG 18:1_19:0_22:0] (ion (formula + adduct): [C62H118O6+NH4] 1+), the “TIMS collisional cross section” value is listed as 344.9 Å².

Take `CCCCCCCC/C=C\CCCCCCCCCC(=O)O[C@H](COC(=O)CCCCCCC/C=C\CCCCCCCC)COC(=O)CCCCCCCCCCCCCCCCCCCC` [TG 18:1_20:1_21:0] (ion (formula + adduct): [C62H116O6+NH4] 1+): the “TIMS collisional cross section” value amounted to 342.9 Å².

For the molecule `CCCCCCCC/C=C\CCCCCCCCCC(=O)O[C@H](COC(=O)CCCCCCC/C=C\CCCCCCCC)COC(=O)CCCCCCCCCCCCCCCCCCCCC` [TG 18:1_20:1_22:0] (ion (formula + adduct): [C63H118O6+NH4] 1+), the “TIMS collisional cross section” value is on record as 345.8 Å².

`CCCCCCCC/C=C\CCCCCCCCCCCC(=O)OC[C@@H](COC(=O)CCCCCCC/C=C\CCCCCCCC)OC(=O)CCCCCCCCC/C=C\CCCCCCCC` [TG 18:1_20:1_22:1] (ion (formula + adduct): [C63H116O6+NH4] 1+): the “TIMS collisional cross section” value came to 342.9 Å².

On to `CC/C=C\C/C=C\C/C=C\C/C=C\C/C=C\CCCCCC(=O)OC[C@@H](COC(=O)CCCCCCC/C=C\CCCCCCCC)OC(=O)CCCCCCCCC/C=C\CCCCCCCC` [TG 18:1_20:1_22:5] (ion (formula + adduct): [C63H108O6+NH4] 1+), for which the “TIMS collisional cross section” value came to 337.9 Å².

As for `CCCCC/C=C\C/C=C\C/C=C\C/C=C\CCCC(=O)O[C@H](COC(=O)CCCCCCC/C=C\CCCCCCCC)COC(=O)CCCCCCCCCCC/C=C\CCCCCCCC` [TG 18:1_20:4_22:1] (ion (formula + adduct): [C63H110O6+NH4] 1+), the “TIMS collisional cross section” value is on record as 339.9 Å².

In the case of `CC/C=C\C/C=C\C/C=C\C/C=C\C/C=C\C/C=C\CCC(=O)OC[C@@H](COC(=O)CCCCCCC/C=C\CCCCCCCC)OC(=O)CCCCCCCCCCCCCCCCCCCCC` [TG 18:1_22:0_22:6] (ion (formula + adduct): [C65H112O6+NH4] 1+), the “TIMS collisional cross section” value came out at 344.7 Å².

On to `CCCCC/C=C\C/C=C\CCCCCCCCCCCC(=O)OC[C@@H](COC(=O)CCCCCCC/C=C\CCCCCCCC)OC(=O)CCCCCCCCCCC/C=C\CCCCCCCC` [TG 18:1_22:1_22:2] (ion (formula + adduct): [C65H118O6+NH4] 1+), for which the “TIMS collisional cross section” value was 346.9 Å².

On to `CC/C=C\C/C=C\C/C=C\C/C=C\C/C=C\C/C=C\CCC(=O)OC[C@@H](COC(=O)CCCCCCC/C=C\CCCCCCCC)OC(=O)CCCCCCCCCCC/C=C\CCCCCCCC` [TG 18:1_22:1_22:6] (ion (formula + adduct): [C65H110O6+NH4] 1+), for which the “TIMS collisional cross section” value is given as 342.5 Å².

Consider `C(OC(=O)CCCCCCC/C=C\C/C=C\CCCCC)[C@]([H])(OC(CCCCCCC/C=C\C/C=C\CCCCC)=O)COC(CCCCCCC/C=C\C/C=C\CCCCC)=O` [TG 18:2_18:2_18:2] (ion (formula + adduct): [C57H98O6+NH4] 1+), for which the “TIMS collisional cross section” value was found to be 321.8 Å².

On to `CCCCC/C=C\C/C=C\CCCCCCCC(=O)OC[C@H](COC(=O)CCCCCCC/C=C\CCCCCCCCC)OC(=O)CCCCCCC/C=C\C/C=C\CCCCC` [TG 18:2_18:2_19:1] (ion (formula + adduct): [C58H102O6+NH4] 1+), for which the “TIMS collisional cross section” value stood at 325.1 Å².

Regarding `CCCCC/C=C\C/C=C\C/C=C\C/C=C\CCCC(=O)OC[C@@H](COC(=O)CCCCCCC/C=C\C/C=C\CCCCC)OC(=O)CCCCCCC/C=C\C/C=C\CCCCC` [TG 18:2_18:2_20:4] (ion (formula + adduct): [C59H98O6+NH4] 1+), the “TIMS collisional cross section” value is 323.3 Å².

The series is the same for the next values; noted with them: sample type: plasma; ionization mode: positive; one isomer drawn.
Turning to `CCCCCCCC/C=C\CCCCCCCC(=O)OC[C@H](COC(=O)CCCCCCCCCCCCCCCCCCCCC)OC(=O)CCCCCCCCCCCCCCCCCCC` [TG 18:1_20:0_22:0] (ion (formula + adduct): [C63H120O6+NH4] 1+), the “TIMS collisional cross section” value worked out at 347.4 Å².

As for `CCCCCCCC/C=C\CCCCCCCCCCCC(=O)OC[C@@H](COC(=O)CCCCCCC/C=C\CCCCCCCC)OC(=O)CCCCCCCCC/C=C\CCCCCCCC` [TG 18:1_20:1_22:1] (ion (formula + adduct): [C63H116O6+NH4] 1+), the “TIMS collisional cross section” value came to 343 Å².

As for `CC/C=C\C/C=C\C/C=C\C/C=C\C/C=C\C/C=C\CCC(=O)OC[C@@H](COC(=O)CCCCCCC/C=C\CCCCCCCC)OC(=O)CCC/C=C\C/C=C\C/C=C\C/C=C\CCCCC` [TG 18:1_20:4_22:6] (ion (formula + adduct): [C63H100O6+NH4] 1+), the “TIMS collisional cross section” value is 332.5 Å².

On to `CC/C=C\C/C=C\C/C=C\CCCCCCCC(=O)OC[C@@H](COC(=O)CCCCCCC/C=C\C/C=C\CCCCC)OC(=O)CCCCCCC/C=C\C/C=C\CCCCC` [TG 18:2_18:2_18:3] (ion (formula + adduct): [C57H96O6+NH4] 1+), for which the “TIMS collisional cross section” value is given as 317.6 Å².
